Test system: DABCYL-A site RNA (25 nucleotide model of the 16S rRNA A site, SEQ ID No. 1)
Test: Competitive inhibition of paramomycin-TAMRA binding to DABCYL-A site RNA by unlabelled antibiotic (FRET, 96-well plate reader)
Settings: 25 nM paramomycin-TAMRA
Procedure: (§1) Binding of paramomycin-TAMRA to A site RNA was measured in a fluorescent plate reader. Measurements were made in a 96-well plate reader (Wallac victor) with a fixed wavelength of 544 nm and emission at 590 nm. I0 was determined by an initial measurement of a 95 μL solution of 25 nM paramomycin-TAMRA in the presence of 50 mM Tris-HCl pH7.5, 80 mM KCl, 0.1% DMSO 0.00007% Triton X-100 and 0.5 ug/mL BSA presence of 10 μM Neomycin. I (the final measurement) was then measured following the addition of 5 μL of a 20×DABCYL-A site RNA stock solution (corresponding to the amounts shown in the figure).
as §1, with “of 15” for “of 10”, “in FIG. 9). […]” for “in the figure).”

Molecule | Inhibition of paramomycin-TAMRA to A site binding (15 μM Paramomycin (heading)) | Inhibition of paramomycin-TAMRA to A site binding (10 μM Neomycin)
NC[C@@H]1O[C@H](O[C@H]2[C@@H](O)[C@H](O[C@@H]3[C@@H](O)[C@H](N)C[C@H](N)[C@H]3O[C@H]3O[C@H](CO)[C@@H](O)[C@H](O)[C@H]3N)O[C@@H]2CO)[C@H](N)[C@@H](O)[C@@H]1O [paramomycin] | competitive inhibitor | 
Neomycin |  | a reduction in fluorescence in the presence of the neomycin competitor was observed
